From patent publication US20240383922A1, “KRAS Modulating Compounds” (Gilead Sciences, Inc., priority 2023, published 2024)
Read-outs that look alike come from different tables or passages of the source.

Key:
[1] = test system: cellular pERK in NCI-H441 (KRAS-G12V) cell-line; assay: Cell based pERK assay (HTRF), NCI-H441; details: NCI-H441 (KRAS-G12V) cells, 2 hours incubation
Procedure: (§1) Compounds were tested in a 384-well assay format for their ability to inhibit cellular pERK in Kuramochi (WT KRAS), MIA-PaCa-2 (KRAS-G12C), ASPC-1 (KRAS G12D), and NCI-H441 (KRAS-G12V) cell-lines. Compounds were serially diluted (1:3) in DMSO. On day −1, 80 uL of cells were plated per well in the 384 well tissue-culture plates (Greiner: Cat #781080) to seed 5000 cells per wells of AsPC-1 or 7500 cells of MIA-PaCa-2, NCI-H441, and Kuramochi cell lines in RPMI (Corning: Cat #10-040-CM) with 10% fetal bovine serum (FBS) (HyClone: Cat #SH30071-03) and 1× penicillin-streptomycin-glutamate (PSG) (Corning: Cat #30-009-CI) for […] and Kuramochi cell lines and DMEM (Corning: Cat #15-018-CM) with […] and 1× PSG for MKA-PaCa-2 cell line. The plates were then incubated overnight at 37° C. and 5% CO2. On day 0, 400 nL of compound/well was added into the cell plates and mixed 5 times by pipetting using a Beckmann Biomek FX. The cell plates were then incubated for 2 hours at 37° C. and 5% CO2. HTRF Advanced Phospho-ERK1/2 ([…]) Detection Kits (PerkinElmer: Cat #64AERPEG) were used to prepare the lysis and detection solution according to manufacturer protocol. Following the 2 hour incubation, 70 μL of medium was aspirated from the plates and 10 uL of lysis and detection solution was added to the plates using a Biotek EL406 washer and dispenser. Plates were sealed and stored overnight at room temperature. HTRF ratio (665 nm/615 nm) was read by Envision multimode reader (PerkinElmer) the next day. The TR-FRET ratios were normalized to a positive (saturating concentration of known inhibitor) and negative (DMSO) control and plotted against the log of compound concentration. IC50 values were defined as the compound concentration that causes a […] in normalized signal and were calculated using a sigmoidal dose-response model to generate curve fits.

[2] = test system: cellular pERK in ASPC-1 (KRAS G12D) cell-line; assay: Cell based pERK assay (HTRF), ASPC-1; details: ASPC-1 (KRAS G12D) cells, 2 hours incubation
Procedure: as §1

[3] = test system: cellular pERK in Kuramochi (WT KRAS) cell-line; assay: Cell based pERK assay (HTRF), Kuramochi; details: Kuramochi (WT KRAS) cells, 2 hours incubation
Procedure: as §1

[4] = test system: cellular pERK in MIA-PaCa-2 (KRAS-G12C) cell-line; assay: Cell based pERK assay (HTRF), MIA-PaCa-2; details: MIA-PaCa-2 (KRAS-G12C) cells, 2 hours incubation, read-out: MIAPaCa2 pERK EC50
Procedure: as §1

SMILES	EC50 [1]	EC50 ([2]; read-out: AsPC1 pERK EC50)	EC50 ([1]; Homo sapiens)	EC50 [3]	EC50 ([2]; Homo sapiens, ASPC1)	EC50 ([4]; Homo sapiens)	EC50 [4]
C#Cc1c(F)ccc2cc(N)cc(-c3c(F)c4c5c(nc(OC[C@@]67CCCN6C[C@H](F)C7)nc5c3F)N3CCCOC[C@@H]3CC4)c12 (single isomer, unassigned) [Example 25-2]	92 nM	67.2 nM	–	–	–	–	–
CCc1c(F)c(F)cc2cc(N)cc(-c3nc4c5c(nc(OCC67CCCN6CCC7)nc5c3F)N3CCCOC[C@@H]3CC4)c12 [Example 8-4]	–	–	> 1000 nM	128 nM	> 1000 nM	–	–
C#Cc1c(F)c(F)cc2cc(N)cc(-c3nc4c5c(nc(OCC67CCCN6CCC7)nc5c3F)N3CCCOC[C@@H]3CC4)c12 [Example 23-3]	–	–	75.9 nM	7.54 nM	105 nM	20.3 nM	–
C#Cc1c(F)ccc2cc(O)cc(-c3nc4c5c(nc(OC[C@@]67CCCN6C[C@H](F)C7)nc5c3F)N3CCC(O)CC[C@@H]3CC4)c12 (stereo partly drawn) [Example 6-29]	–	–	452 nM	46.3 nM	741 nM	23.8 nM	–
C#Cc1c(F)ccc2cc(O)cc(-c3nc4c5c(nc(OC[C@@]67CCCN6C[C@H](F)C7)nc5c3F)N3CCCOC[C@@H]3C=C4)c12 [Example 6-19]	–	–	1.15 nM	4.01 nM	1.18 nM	0.47 nM	–
C#Cc1c(F)ccc2cc(N)cc(-c3nc4c5c(nc(OC[C@@]67CCCN6[C@H](CF)CC7)nc5c3F)N3CCCOC[C@@H]3CC4)c12 [Example 7-2]	–	–	6.23 nM	3.44 nM	25.8 nM	4.01 nM	–
C#Cc1c(F)ccc2cc(O)cc(-c3c(F)c4c5c(nc(OC[C@@]67CCCN6C[C@H](F)C7)nc5c3F)N3CCCOC[C@@H]3CC4)c12 (atropisomer, axis not shown) [Example 24-1, 4-((11S,14a5)-10,12-difluoro-8-(((2R,7a5)-2-fluorotetrahydro-1H-pyrrolizin-7a(5H1)-yl)methoxy)-1,4,5,13,14,14a-hexahydro-3H-[1,4]oxazepino[4′,3′:1,7]azepino[2,3,4-de]quinazolin-11-yl)-5-ethynyl-6-fluoronaphthalen-2-ol]	55.3 nM	85 nM	–	138 nM	–	–	46.7 nM
Cc1c(F)c(N)cc(-c2nc3c4c(nc(OC[C@@]56CCCN5C[C@H](F)C6)nc4c2F)N2CCCOC[C@@H]2CC3)c1C(F)(F)F [Example 7-11]	–	–	724 nM	188 nM	> 1000 nM	–	–
C#Cc1c(F)ccc2cc(O)cc(-c3nc4c5c(nc(OC[C@@]67CCCN6[C@H](COC(=O)N(C)C)CC7)nc5c3F)N3CCCOC[C@@H]3CC4)c12 [Example 6-25]	–	–	4.57 nM	17.9 nM	9.84 nM	3.87 nM	–
C#Cc1c(F)c(F)cc2cc(N)cc(-c3nc4c5c(nc(OC[C@@]67CCCN6C/C(=C\F)C7)nc5c3F)N3CCCOC[C@@H]3CC4)c12 [Example 23-2]	–	–	1.67 nM	1.37 nM	5.33 nM	0.87 nM	–
C#Cc1c(F)ccc2cccc(-c3nc4c5c(nc(OC[C@@]67CCCN6C[C@H](F)C7)nc5c3F)N3CCCOC[C@@H]3CC4)c12 [Example 6-7]	–	–	825 nM	384 nM	> 1000 nM	328 nM	–
C#Cc1c(F)ccc2cc(O)cc(-c3nc4c5c(nc(OC[C@@]67CCCN6C[C@H](F)C7)nc5c3F)N3CCCOC[C@H]3CC4)c12 [Example 6-5]	–	–	32.2 nM	44.9 nM	85.8 nM	13.6 nM	–
C#Cc1c(F)ccc2cc(O)cc(-c3nc4c5c(nc(OC[C@@]67CCCN6C[C@H](F)C7)nc5c3F)N3CCCOC[C@@H]3C[C@@H]4F)c12 [Example 6-27]	–	–	58.7 nM	28.8 nM	97.1 nM	17.4 nM	–
C#Cc1c(F)ccc2cc(N)cc(-c3nc4c5c(nc(OC[C@@]67CCCN6C[C@H](F)C7)nc5c3F)N3CCCOC[C@@H]3C[C@H]4C)c12 [Example 7-9]	–	–	16.9 nM	7.23 nM	54.9 nM	9.04 nM	–
C#Cc1c(F)ccc2cccc(-c3nc4c5c(nc(OCC67CCCN6CCC7)nc5c3F)N3CCCOC[C@@H]3CC4)c12 [Example 6-9]	–	–	729 nM	376 nM	> 1000 nM	430 nM	–
C#Cc1c(F)ccc2cc(O)cc(-c3c(F)c4c5c(nc(OC[C@@]67CCCN6C[C@H](F)C7)nc5c3F)N3CCCOC[C@@H]3CC4)c12 (atropisomer, axis not shown) [Example 24-2, 4-((11R,14aS)-10,12-difluoro-8-(((2R,7aS)-2-fluorotetrahydro-1H-pyrrolizin-7a(5H)-yl)methoxy)-1,4,5,13,14,14a-hexahydro-3H-[1,4]oxazepino[4′,3′:1,7]azepino[2,3,4-de]quinazolin-11-yl)-5-ethynyl-6-fluoronaphthalen-2-ol]	8.01 nM	1.69 nM	–	2.64 nM	–	–	0.82 nM
C#Cc1c(F)c(F)cc2cc(O)cc(-c3nc4c5c(nc(OC[C@@]67CCCN6C[C@H](F)C7)nc5c3F)N3CCCOC[C@@H]3CC4)c12 [Example 6-26]	–	–	4.04 nM	2.61 nM	1.19 nM	1.59 nM	–
C#Cc1c(F)ccc2cc(O)cc(-c3nc4c5c(nc(OC[C@@]67CCCN6C[C@H](F)C7)nc5c3F)N3CCCOCC3C[C@H]4F)c12 (stereo partly drawn) [Example 22-6]	–	–	58.7 nM	28.8 nM	97.1 nM	17.4 nM	–
C#Cc1c(F)ccc2cc(O)cc(-c3nc4c5c(nc(OC[C@@]67CCCN6C[C@H](F)C7)nc5c3F)N3CCOCC[C@@H]3CCC4)c12 (single isomer, unassigned) [Example 10-2]	–	–	> 1000 nM	340 nM	> 1000 nM	248 nM	–
C#Cc1c(F)ccc2cc(N)cc(-c3nc4c5c(nc(OC[C@@]67CCCN6C[C@H](F)C7)nc5c3F)N3CCCOC[C@@H]3C=C4C)c12 [Example 7-7]	–	–	4.01 nM	–	8.61 nM	1.97 nM	–
C#Cc1c(F)ccc2cc(N)cc(-c3nc4c5c(nc(OC[C@@]67CCCN6[C@H](COC(=O)N(C)C)CC7)nc5c3F)N3CCCOC[C@@H]3CC4)c12 [Example 23-4]	–	–	57 nM	4.1 nM	78 nM	–	–
C#Cc1c(F)ccc2cc(N)cc(-c3c(F)c4c5c(nc(OC[C@@]67CCCN6C[C@H](F)C7)nc5c3F)N3CCCOC[C@@H]3CC4)c12 (atropisomer, axis not shown) [Example 25-1, 4-((11S,14aS)-10,12-difluoro-8-(((2R,7aS)-2-fluorotetrahydro-1H-pyrrolizin-7a(5H)-yl)methoxy)-1,4,5,13,14,14a-hexahydro-3H-[1,4]oxazepino[4′,3′:1,7]azepino[2,3,4-de]quinazolin-11-yl)-5-ethynyl-6-fluoronaphthalen-2-amine]	> 1000 nM	> 1000 nM	–	> 1000 nM	–	–	–
C#Cc1c(F)ccc2cc(O)cc(-c3nc4c5c(nc(OC[C@@]67CCCN6C[C@H](F)C7)nc5c3F)N3CC(F)(F)COCC3CC4)c12 (mixture of isomers) [Example 6-17]	–	–	3.71 nM	–	10.6 nM	0.7 nM	–
